# Results from patent US20230372382A1, “USE OF ADENOSINE DIPHOSPHATE RIBOSE FOR ADJUVANT THERAPY WITH RADIATION AND/OR ANTI-CANCER TREATMENT” (PearlsInMires Co., Ltd., priority 2021, published 2023).
# Tests used:
# [1] = test system: Liver cancer (Hep G2) cells; assay: Xenograft model, combination with anti-cancer drug, tumor volume; format: in vivo, BALB/c nude mice
# Procedure: Brain (U-87MG), lung (H1975), pancreatic (AsPC-1), or liver (Hep G2) cells (1×10^7 cells) were inoculated into 5-week-old BALB/c nude mice on the back flank, respectively. Then, when tumors were grown to a volume of approximately 150 mm^3, the mice were divided into the control group (control), an anti-cancer drug alone treatment group, and a combination treatment group. […] The tumor size was measured every 6 days using a digital caliper, and the results of changes in tumor volume were compared by the group.
# Liver cancer (Hep G2) cells (1×10^7) were inoculated into 5-week-old BALB/c nude mice on the back flank, and the mice were divided into three groups: the control group (Control), single oral administration of 10 mg/kg of sorafenib, and combination administration of sorafenib+10 mg/kg of ADP-ribose. When the tumors were grown to a volume of approximately 150 mm^3, sorafenib was administered orally 5 times a week, and ADP-ribose at 10 mg/kg was injected subcutaneously 3 times a week. The tumor size was measured using a digital caliper, and the results of changes in tumor volume were compared by the group.
# [2] = test system: Caki-1 cells; assay: Cancer cell death verification (MTT cell viability); format: cell-based
# Procedure: (§1) 3×10^3 Brain cancer (U-87MG), lung cancer (H1975), pancreatic cancer (Aspc-1), liver cancer (Hep G2), breast cancer (MDA-MB-231), colon cancer (HCT116), kidney cancer (Caki-1), gastric cancer (SNU-1) and ovarian cancer (OVCAR-3) cells were cultured in a 96-well plate under conditions of 37° C. and 5% CO2 for 24 hours, and then each cancer cell was treated with ADP-ribose at each concentration. After culturing for 24 hours under conditions of 37° C. and 5% CO2 again, 10 μl of 3-(4,5-dimethylthiazol-2-yl)-2,5-diphenyltetrazolium bromide reagent was added to each well and reacted for 1 hour. After the reaction was completed, the reagent was removed, 200 μl of dimethyl sulfoxide was added to each well, and the absorbance was measured to determine the concentration of half-lethality and maximum lethality compared to untreated cells.
# Then, 10 μl of 3-(4,5-dimethylthiazol-2-yl)-2,5-diphenyltetrazolium bromide reagent was added to each well and reacted for 1 hour. After the reaction was completed, the reagent was removed, 200 μl of dimethyl sulfoxide was added to each well, and the absorbance was measured to confirm cell viability.
# [3] = test system: HCT116 cells; assay: as above; format: cell-based
# Procedure: as §1
# 3×10^3 HCT116 cells were cultured in a 96-well plate for 24 hours under conditions of 37° C. and 5% Ca2, treated with ADP-ribose at concentrations of 0.125, 0.25, 0.5, 1, 2, 4, 8, 16, and 32 μM, respectively, and cultured again for 24 hours under conditions of 37° C. and 5% CO2. Then, 10 μl of 3-(4,5-dimethylthiazol-2-yl)-2,5-diphenyltetrazolium bromide reagent was added to each well and reacted for 1 hour. After the reaction was completed, the reagent was removed, 200 μl of dimethyl sulfoxide was added to each well, and the absorbance was measured to confirm cell viability.
# [4] = test system: Breast cancer (MDA-MB-231) cells; assay: Xenograft model, combination with radiation, tumor volume; format: in vivo, BALB/c nude mice; details: MDA-MB-231 xenograft
# Procedure: Brain cancer (U-87MG), pancreatic cancer (AsPC-1), breast cancer (MDA-MB-231), or kidney cancer (Caki-1) cells (1×10^7 cells) were inoculated into 5-week-old BALB/c nude mice on the back flank, respectively. Then, when tumors were grown to a volume of approximately 150 mm^3, the mice were divided into three groups: the control group (Control), 2 Gy dose of radiation alone, and a combination administration of 2 Gy dose of radiation+10 mg/kg of ADP-ribose (subcutaneous administration, 3 times a week). The irradiation was performed with an X-Rad 320 irradiator (Precision X-ray, North Branford, CT, USA), wherein the mice were placed by maintaining an appropriate distance from the radiation source for irradiation with a predetermined radiation dose. A lead shield was used to protect the body parts or organs from exposure to radiation, other than the cancerous part of the mouse. The irradiation was performed with a total of 2 Gy of radiation fractionated into two doses of 1 Gy each (for 2 days) at a dose rate of 300 kVp and 150 cGy/min using an X-ray beam filter composed of 12.5 mA and 2.0 mm Al. The tumor size was measured every 6 days using a digital caliper, and the results of changes in tumor volume were compared by the group.
# Breast cancer (MDA-MB-231) cells (1×10^7) were inoculated into 5-week-old BALB/c nude mice on the back flank, and the mice were divided into three groups: the control group (Control), 2 Gy dose of radiation alone, and combination administration of 2 Gy dose radiation+20 mg/kg of ADP-ribose. When the tumors were grown to a volume of approximately 150 mm^3, 2 Gy dose of radiation was irradiated twice at 1 Gy each, and 20 mg/kg of ADP-ribose was injected subcutaneously 3 times a week. The tumor size was measured using a digital caliper, and the results of changes in tumor volume were compared by the group.
# [5] = test system: H1975 cells; assay: Cell death by combination treatment of ADP-ribose and radiation (MTT); format: cell-based; details: H1975, 2 μM ADP-ribose in combination with 2 Gy radiation, 24 hours, P<0.001; 2 Gy alone about 75%
# Procedure: 3×10^3 H1975 cells were cultured in a 96-well plate for 24 hours under conditions of 37° C. and 5% Ca2, treated with 2 μM of ADP-ribose and 2 or 5 Gy dose of radiation individually or in combination, and cultured for 24 hours under conditions of 37° C. and 5% CO2 again. Then, 10 μl of 3-(4,5-dimethylthiazol-2-yl)-2,5-diphenyltetrazolium bromide reagent was added to each well and reacted for 1 hour. After the reaction was completed, the reagent was removed, 200 μl of dimethyl sulfoxide was added to each well, and the absorbance was measured to confirm cell viability.
# [6] = test system: AsPC-1 cells; assay: Change over time in intracellular ADP-ribose, radiation versus ADP-ribose treatment (ELISA); format: cell-based; details: AsPC-1, 2 μM ADP-ribose, even after 24 hours; after radiation back to untreated level from 16 hours
# Procedure: Brain cancer (U-87MG), kidney cancer (Caki-1), pancreatic cancer (AsPC-1), or breast cancer (MDA-MB-231) cells were cultured in a 6-well plate, respectively, and the cells were divided into the untreated group, the radiation-treated group, and the ADP-ribose-treated group. Irradiation was performed using an X-Rad 320 irradiator (Precision X-ray, North Branford, CT, USA), and cancer cells were treated with a total of 1, 2, and 5 Gy at a dose rate of 300 kVp and 150 cGy/min using an X-ray beam filter composed of 12.5 mA and 2.0 mm Al, respectively. Before treatment and at 4, 8, 16, and 24 hours after treatment, the medium was removed, the cells were washed with phosphate-buffered saline, and then RIPA buffer was added and the products were left on ice for 20 minutes. After scraping the cells, the cells were put in a centrifuge tube and centrifuged for 10 minutes at 10,000 g and 4° C. The supernatant was obtained, and 1% SDS was added, and then the reaction product was boiled at 100° C. for 5 minutes and cooled on ice. The supernatant was centrifuged again at 10,000 g and 4° C. for 10 minutes to obtain the final supernatant, and ADP-ribose was quantitatively analyzed using an ELISA analysis kit (Cell Biolabs, Inc., San Diego, CA, USA). […]
# [7] = test system: Caki-1 cells; assay: Cell death by combination treatment of ADP-ribose and radiation (MTT); format: cell-based; details: Caki-1, 16 μM ADP-ribose in combination with 2 Gy radiation, 24 hours, P<0.001; 2 Gy alone about 94.7%
# Procedure: 3×10^3 Caki-1 cells were cultured in a 96-well plate for 24 hours under conditions of 37° C. and 5% CO2, treated with 16 μM of ADP-ribose and 2 or 5 Gy dose of radiation individually or in combination, and cultured for 24 hours under conditions of 37° C. and 5% CO2 again. Then, 10 μl of 3-(4,5-dimethylthiazol-2-yl)-2,5-diphenyltetrazolium bromide reagent was added to each well and reacted for 1 hour. After the reaction was completed, the reagent was removed, 200 μl of dimethyl sulfoxide was added to each well, and the absorbance was measured to confirm cell viability.
# [8] = test system: Lung cancer (H1975) cells; assay: Cell death by combination treatment with anti-cancer drug (MTT); format: cell-based; details: Homo sapiens, NCI-H1975; H1975, ADP-ribose 1.6 μM in combination with osimertinib 1 nM, 24 hours, P<0.001
# [9] = ADP-ribose 10 mg/kg s.c. in combination with sorafenib 10 mg/kg, P<0.001
# [10] = ADP-ribose 20 mg/kg s.c. + 2 Gy radiation, P<0.001
structure (smiles),measurement,setting,value
"Nc1ncnc2c1ncn2[C@@H]1O[C@H](COP(=O)(O)OP(=O)(O)OC[C@H]2O[C@@H](O)C(O)C2O)C(O)C1O (stereo partly shown) [ADP-ribose, adenosine diphosphate ribose]",reduction of tumor volume compared to the control group,[1]; [9],about 76%
same,reduction of tumor volume compared to the group treated with sorafenib alone,[1]; [9],about 70%
same,final tumor volume,"[1]; ADP-ribose 10 mg/kg subcutaneous 3 times a week in combination with sorafenib 10 mg/kg, control about 2322.4",about 546 mm^3
same,maximum lethal dose (concentration at which almost all cells were killed),"[2]; Caki-1, 24 hours, MTT",32 µM
same,cancer cell growth under a microscope,"[2]; Caki-1, ADP-ribose treated vs control, FIG. 8A",inhibited from growing and killed
same,IC50,"[2]; Homo sapiens, CAKI-1, 24 h, read-out: half-lethal dose (concentration at which about half of the cells were killed)",~16 µM
same,maximum lethal dose (concentration at which almost all cells were killed),"[3]; HCT116, 24 hours, MTT",32 µM
same,cancer cell growth under a microscope,"[3]; HCT116, ADP-ribose treated vs control, FIG. 7A",inhibited from growing and killed
same,IC50,"[3]; Homo sapiens, HCT-116, 24 h, read-out: half-lethal dose (concentration at which about half of the cells were killed)",~8 µM
same,reduction of tumor volume compared to the control group,[4]; [10],about 72.6%
same,reduction of tumor volume compared to the group treated with 2 Gy dose of radiation alone,[4]; [10],about 56.1%
same,final tumor volume,"[4]; ADP-ribose 20 mg/kg subcutaneous 3 times a week + 2 Gy radiation, control about 2336.1, 2 Gy alone about 1459.6",about 640.4 mm^3
same,survival rate of cancer cells,[5],about 8%
same,amount of ADP-ribose in the cells over time compared to the control group,[6],maintained a significant (P<0.001) increase
same,survival rate of cancer cells,[7],about 22.7%
same,viability at 1.6 µM,[8],~0.9%
